What all share (assay type): cell-based
For one assay, the system named is Proteus mirabilis. In words: MIC against Gram-negative bacteria: Proteus mirabilis. The note with it: for MIC (μg/mL) P. mirabilis / MIC P. mirabilis: 5×10^5 CFU/mL; for MIC P. mirabilis: two-fold serial dilution. In outline: (§1)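 Growth inhibition by human EGF domain proteins was scored in LB liquid culture seeded at 5×10^5 CFU/mL. Protein was applied as a two-fold dilution series in triplicate, with shaking incubation at 37° C; MIC is the lowest concentration giving no growth.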

A further assay concerns Serratia marcescens. In words: MIC against Gram-negative bacteria: Serratia marcescens. The note with it: for MIC (μg/mL) S. marcescens / MIC S. marcescens: 5×10^5 CFU/mL; for MIC S. marcescens: two-fold serial dilution. In outline: as §1
Another assay concerns E. coli BL21. Nature of the assay: MIC against Gram-negative bacteria: E. coli BL21. Conditions: for MIC (μg/mL) E. coli BL21 / MIC E. coli BL21: 5×10^5 CFU/mL; for MIC E. coli BL21: two-fold serial dilution. The essentials:
as §1

The test system of another assay is Aeromonas hydrophila. Nature of the assay: MIC against Gram-negative bacteria: Aeromonas hydrophila. Conditions: for MIC (μg/mL) A. hydrophila / MIC A. hydrophila: 5×10^5 CFU/mL; for MIC A. hydrophila: two-fold serial dilution. The essentials:
as §1

Another assay has as its system Pseudomonas aeruginosa. In words: MIC against Gram-negative bacteria: Pseudomonas aeruginosa. The note with it: for MIC (μg/mL) P. aeruginosa / MIC P. aeruginosa: 5×10^5 CFU/mL; for MIC P. aeruginosa: two-fold serial dilution. The essentials: as §1
The test system of a further assay is Moraxella catarrhalis. Nature of the assay: MIC against Gram-negative bacteria: Moraxella catarrhalis. The note with it: for MIC (μg/mL) M. catarrhalis / MIC M. catarrhalis: 5×10^5 CFU/mL; for MIC M. catarrhalis: two-fold serial dilution. In outline: as §1
A further assay relates to Citrobacter diversus. In words: MIC against Gram-negative bacteria: Citrobacter diversus. The note with it: for MIC (μg/mL) C. diversus / MIC C. diversus: 5×10^5 CFU/mL; for MIC C. diversus: two-fold serial dilution. In outline: as §1
In the next assay the test system is E. coli DH5α. In words: Antibacterial activity: MIC and growth curve against E. coli DH5α in 96-well plate. Conditions: minimal inhibitory concentration against E. coli DH5α; 96-well plate, 5×10^5 CFU/mL, 37° C., judged after 8 h. In outline: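 MIC taken as lowest protein level with no bacterial growth, tracked by A600 every 30 min during 37 °C, 175 rpm culture. Two-fold protein series 50-12.5 μg/mL final, triplicate wells, against 5×10^5 CFU/mL of LB-washed mid-log cells.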

The next assay deals with Proteus vulgaris. Nature of the assay: MIC against Gram-negative bacteria: Proteus vulgaris. The note with it: for MIC (μg/mL) P. vulgaris / MIC P. vulgaris: 5×10^5 CFU/mL; for MIC P. vulgaris: two-fold serial dilution. The essentials: as §1
A further assay relates to Enterobacter cloacae. Nature of the assay: MIC against Gram-negative bacteria: Enterobacter cloacae. The note with it: for MIC (μg/mL) E. cloacae / MIC E. cloacae: 5×10^5 CFU/mL; for MIC E. cloacae: two-fold serial dilution. The essentials:
as §1

For a further assay, the system named is Klebsiella pneumonia. Nature of the assay: MIC against Gram-negative bacteria: Klebsiella pneumonia. Conditions: for MIC (μg/mL) K. pneumonia / MIC K. pneumonia: 5×10^5 CFU/mL; for MIC K. pneumonia: two-fold serial dilution. In outline: as §1
Setting [1] is: P. mirabilis, 10 h cultivation at 37° C.
The mark [2] stands for this setting: S. marcescens, 10 h cultivation at 37° C.
Setting [3] is: E. coli BL21, 10 h cultivation at 37° C.
Setting [4] is: A. hydrophila, 10 h cultivation at 37° C.
Where [5] appears, read: P. aeruginosa, 10 h cultivation at 37° C.
Setting [6] is: M. catarrhalis, 10 h cultivation at 37° C.
Where [7] appears, read: C. diversus, 10 h cultivation at 37° C.
Where [8] appears, read: P. vulgaris, 10 h cultivation at 37° C.
[9] abbreviates: E. cloacae, 10 h cultivation at 37° C.
[10] abbreviates: K. pneumonia, 10 h cultivation at 37° C.

The source of these data is patent US9833497B2, “Human originated EGF domain proteins and use of the same” (CHENGDU SOURCEBIO LIMITED-LIABILITY COMPANY, priority 2013, dated 2017).

What is called MIC is the lowest concentration that inhibits growth of the organism. A high value points to a less susceptible organism.

Regarding “PRT89 (TNGQCHCKEFHYRPRGSDSCLPCDCYPVGSTSRSCA; listed as Homo sapiens)”, the “MIC (μg/mL) P. mirabilis” value with Proteus mirabilis (Proteus mirabilis, 96-well plate, 37° C., 10 h) came to 25 µg/mL. The “MIC (μg/mL) S. marcescens” value with Serratia marcescens (Serratia marcescens, 96-well plate, 37° C., 10 h) is 12.5 µg/mL. In the assay on E. coli BL21 (E. coli BL21, 96-well plate, 37° C., 10 h), the “MIC (μg/mL) E. coli BL21” value came out at 50 µg/mL. In addition, the “MIC (μg/mL) A. hydrophila” value with Aeromonas hydrophila (Aeromonas hydrophila, 96-well plate, 37° C., 10 h) is 50 µg/mL. The “MIC (μg/mL) P. aeruginosa” value against Pseudomonas aeruginosa (Pseudomonas aeruginosa, 96-well plate, 37° C., 10 h) was 12.5 µg/mL. The “MIC (μg/mL) M. catarrhalis” value with Moraxella catarrhalis (Moraxella catarrhalis, 96-well plate, 37° C., 10 h) is 12.5 µg/mL. In addition, in the assay with Citrobacter diversus (Citrobacter diversus, 96-well plate, 37° C., 10 h), the “MIC (μg/mL) C. diversus” value was found to be 25 µg/mL. In the assay with E. coli DH5α, this substance yielded an MIC of 25 µg/mL. Also, the “MIC (μg/mL) P. vulgaris” value against Proteus vulgaris (Proteus vulgaris, 96-well plate, 37° C., 10 h) stood at 50 µg/mL. The “MIC (μg/mL) E. cloacae” value against Enterobacter cloacae (Enterobacter cloacae, 96-well plate, 37° C., 10 h) was 25 µg/mL. In the assay on Klebsiella pneumonia (Klebsiella pneumonia, 96-well plate, 37° C., 10 h), the “MIC (μg/mL) K. pneumonia” value is 12.5 µg/mL.
In the case of “PRT1108 (DLNECNSNPCQSNGECVELSSEKQYGRITGLPSSFSYHEASGYVCICQPGFTGIHCE; listed as Homo sapiens)”, the “MIC P. mirabilis” value in the assay on Proteus mirabilis (10 h cultivation at 37° C.) worked out at 12.5 µg/mL. The “MIC S. marcescens” value with Serratia marcescens (10 h cultivation at 37° C.) was 12.5 µg/mL. The “MIC E. coli BL21” value in the assay with E. coli BL21 (10 h cultivation at 37° C.) was 12.5 µg/mL. Further, in the assay on Aeromonas hydrophila (10 h cultivation at 37° C.), the “MIC A. hydrophila” value is 25 µg/mL. Also, the “MIC P. aeruginosa” value against Pseudomonas aeruginosa (10 h cultivation at 37° C.) was found to be 12.5 µg/mL. Also, the “MIC M. catarrhalis” value in the assay with Moraxella catarrhalis (10 h cultivation at 37° C.) is 25 µg/mL. In addition, the “MIC C. diversus” value in the assay with Citrobacter diversus (10 h cultivation at 37° C.) was 12.5 µg/mL. The MIC in the assay on E. coli DH5α came out at 50 µg/mL. The “MIC P. vulgaris” value against Proteus vulgaris (10 h cultivation at 37° C.) came to 25 µg/mL. In addition, the “MIC E. cloacae” value in the assay with Enterobacter cloacae (10 h cultivation at 37° C.) was 25 µg/mL. Moreover, in the assay with Klebsiella pneumonia (10 h cultivation at 37° C.), the “MIC K. pneumonia” value came out at 12.5 µg/mL.
In the case of “PRT878 (ADPLCAPARNPCANGGLCTVLAPGEVGCDCSHTGFGGKFCS; listed as Homo sapiens)”, the “MIC (μg/mL) P. mirabilis” value in the assay with Proteus mirabilis (setting [1]) was found to be 50 µg/mL. Also, the “MIC (μg/mL) S. marcescens” value in the assay with Serratia marcescens (setting [2]) stood at 12.5 µg/mL. Moreover, the “MIC (μg/mL) E. coli BL21” value with E. coli BL21 (setting [3]) was 25 µg/mL. The “MIC (μg/mL) A. hydrophila” value in the assay on Aeromonas hydrophila (setting [4]) came to 50 µg/mL. Besides, the “MIC (μg/mL) P. aeruginosa” value in the assay on Pseudomonas aeruginosa (setting [5]) worked out at 12.5 µg/mL. For the same substance, the “MIC (μg/mL) M. catarrhalis” value against Moraxella catarrhalis (setting [6]) was 25 µg/mL. Further, the “MIC (μg/mL) C. diversus” value against Citrobacter diversus (setting [7]) was 12.5 µg/mL. The MIC in the assay on E. coli DH5α is 50 µg/mL. The “MIC (μg/mL) P. vulgaris” value in the assay with Proteus vulgaris (setting [8]) is 25 µg/mL. For the same substance, the “MIC (μg/mL) E. cloacae” value against Enterobacter cloacae (setting [9]) is 12.5 µg/mL. Also, the “MIC (μg/mL) K. pneumonia” value in the assay with Klebsiella pneumonia (setting [10]) was 50 µg/mL.
On to “PRT1064 (INECLSRKLSGCSQDCEDLKIGFKCRCRPGFRLKDDGRTCA; listed as Homo sapiens)”, for which, in the assay with Proteus mirabilis (10 h cultivation at 37° C.), the “MIC P. mirabilis” value turned out to be 50 µg/mL. In addition, the “MIC S. marcescens” value in the assay with Serratia marcescens (10 h cultivation at 37° C.) is 12.5 µg/mL. For the same substance, the “MIC E. coli BL21” value against E. coli BL21 (10 h cultivation at 37° C.) is 50 µg/mL. The “MIC A. hydrophila” value with Aeromonas hydrophila (10 h cultivation at 37° C.) amounted to 25 µg/mL. In the assay on Pseudomonas aeruginosa (10 h cultivation at 37° C.), the “MIC P. aeruginosa” value was 25 µg/mL. Also, the “MIC M. catarrhalis” value in the assay on Moraxella catarrhalis (10 h cultivation at 37° C.) turned out to be 25 µg/mL. Besides, the “MIC C. diversus” value against Citrobacter diversus (10 h cultivation at 37° C.) is 12.5 µg/mL. The MIC against E. coli DH5α came to 25 µg/mL. Further, the “MIC P. vulgaris” value in the assay with Proteus vulgaris (10 h cultivation at 37° C.) turned out to be 25 µg/mL. The “MIC E. cloacae” value with Enterobacter cloacae (10 h cultivation at 37° C.) is 50 µg/mL. Moreover, the “MIC K. pneumonia” value in the assay on Klebsiella pneumonia (10 h cultivation at 37° C.) amounted to 12.5 µg/mL.
For “PRT908 (LDNACLTNPCRNGGTCDLLTLTEYKCRCPPGWSGKSCQ; listed as Homo sapiens)”, the MIC with Proteus mirabilis (setting [1]) came out at 25 µg/mL; against Serratia marcescens (setting [2]) it was 25 µg/mL; against E. coli BL21 (setting [3]) it was 12.5 µg/mL; in the assay with Aeromonas hydrophila (setting [4]), 25 µg/mL; with Pseudomonas aeruginosa (setting [5]), 25 µg/mL; against Moraxella catarrhalis (setting [6]) it was 12.5 µg/mL. Moreover, the MIC was 50 µg/mL with Citrobacter diversus (setting [7]); 50 µg/mL with E. coli DH5α; 25 µg/mL in the assay on Proteus vulgaris (setting [8]); 100 µg/mL against Enterobacter cloacae (setting [9]); 50 µg/mL against Klebsiella pneumonia (setting [10]).
